Patent US20080311103A1, “Anti-Inflammatory Peptides and Methods of Use Thereof” (YEDA RESEARCH AND DEVELOPMENT CO. LTD. at THE WEIZMANN …, priority 2004, published 2008)

Experiments:
T cells = experiment: Chemotaxis assay: T cell migration toward SDF-1α; type: cell-based; settings: concentration range 10-1000 ng/ml; SDF-1α 250 ng/ml; 3 hr
Procedure: The migration of ^51-[Cr]-labeled T cells was examined in […] Transwell chemotaxis apparatus (6.5-mm diameter; Corning, N.Y.), consisting of two compartments separated by polycarbonate filters (5 μm pore size) pretreated (1 hr, 37° C.) with FN (25 μg/ml). ^51-[Cr]-labeled T cells (2×10^5 in 100 μl of RPMI containing 0.1% BSA and antibiotics), which were pre-incubated with the indicated concentrations of peptides (30 min, 37° C.), were added to the upper chambers. The bottom chambers contained 0.6 ml of the same media, with or without human Stromal cell-Derived Factor-1α (SDF-1α; 250 ng/ml). After incubation at 37° C. for 3 hr (7.5% CO2-humidified atmosphere), cells that had transmigrated into the lower wells were collected, centrifuged, and lysed (in 100 μl of distilled water containing 1 M NaOH and 0.1% Triton X-100), and the radioactivity in the resulting supernatants was determined with a γ-counter. The percentage (±SD) of cell migration was calculated as the radioactivity counts in the lysates of the lower chambers (representative of the migrating cells) divided by the total counts (representative of 2×10^5 cells).

[1] = test system: anti-CD3 antibody induced TNFα secretion from T cells; experiment: TNFα secretion by anti-CD3 activated T cells; type: cell-based, human; settings: peptide 100 ng/ml; 24 hours; ELISA; FIG. 7A
Procedure: (§1) Human T cells were purified and maintained in culture (RPMI containing 10% FCS, 1% Pyruvate, 1% glutamine, 1% antibiotics, 7.5% CO2, humidified atmosphere) for 15 hr before they were transferred to RPMI and activated (2 hr, 37° C.) with the indicated concentrations of the peptides. The cells were then plated (1.5×10^6 cells/0.5 ml/well) in 24 wells plates (non-tissue culture grade) precoated with anti-CD3 mAb in order to stimulate the cells to secrete cytokines. After 24 hours, the supernatants were collected and their cytokine content (TNFα and IFNγ) was determined by ELISA using anti-IFNγ and anti TNFα mAb (Pharmingen; San Diego, Calif.) according to the manufacturer's instructions.

[2] = test system: anti-CD3 antibody induced IFNγ secretion from T cells; experiment: IFNγ secretion by anti-CD3 activated T cells; type: cell-based, human; parameters: concentration or dose not given beside the values; settings: 24 hours; ELISA; FIG. 7B
Procedure: as §1

BALB/C mice = experiment: Con A-induced hepatic injury (acute hepatitis model); type: in vivo; settings: 50 μg/mouse intraperitoneally, 2 or 3 injections before ConA, especially after 3 treatments; FIG. 10B
Procedure: Con A (13 mg/kg) was administered i.v. to BALB/c mice 18 hours before analysis (Bonder, C. S. et al. 2004. J. Immunol. 172: 45-53). Mice were intraperitoneally injected with the peptides of the invention 48 and 2 hours before ConA injection.
Blood analysis: 18 hours after Con A injection, blood was obtained by cardiac puncture for detection of serum alanine aminotransferase (ALT) and aspartate aminotransferase (AST). The presence of these two enzymes in serum is used as an index of hepatocellular injury. The detection of ALT and AST was performed by a commercial kit for ALT and AST (Bayer Diagnostics, Tarry town, NY, USA) using an automated Monarch Monoanalyzer 2000 (Allied, Lexington, Mass.).

Jurkat and THP-1 cells = experiment: TNFα secretion by PMA/PHA induced Jurkat and THP-1 cells; type: cell-based, human; settings: peptide 1 μg/ml; 48 hours; ELISA
Procedure: Jurkat cells human T cell lymphoma line) (2×10^6 cells/ml) cultured in RPMI-1640 supplemented with 10% FCS were activated with PMA (50 ng/ml) and phytohaemagglutinin PHA (4 µg/ml) for 6 hours at 37° C. (7.5% CO2-humidified atmosphere). Thereafter, the cells were washed, plated on 24-well plates (10^6 cells/well in 0.5 ml), and incubated (1 hour at 37° C., 7.5% CO2-humidified atmosphere) with the indicated concentrations of peptides 1-5. Following the incubation, THP-1 cells (human monocytic cell line derived from a patient with acute monocytic leukaemia; 1.25×10^5 cells/0.5 ml/well) were added to the wells. After 48 hours, the supernatants were collected and their TNF[…] content was determined by ELISA using anti TNF[…] mAb (Pharmingen; San Diego, Calif.) according to the manufacturer's instructions.

[3] = test system: mice sensitized with oxazolone; type: in vivo, mouse; settings: FIG. 1; peptides by implanted osmotic pump, 0.2 μg/hour for 7 days; ear measured 24 hours after oxazolone challenge; BALB/c mice
Procedure: Groups of 5 female inbred BALB/c mice (The Jackson Laboratory, Bar Harbor, Me.) were sensitized on the shaved abdominal skin with 2% oxazolone (100 μl) dissolved in acetone/olive oil [4:1 (vol/vol)] applied topically. Delayed type hypersensitivity (DTH) was elicited 5 days later by challenging the mice with 0.5% oxazolone in acetone/olive oil (10 μl given topically to each side of the ear). A constant area of the ear was measured immediately before and 24 hours after the challenge using a Mitutoyo engineer's micrometer. The percent inhibition of DTH is calculated as follows:
% Inhibition=[1-{(treated−negative control)/(positive control−negative control)}]×100.
The positive control is the DTH reaction to oxazolone elicited in sensitized mice without treatment. The negative control is the background swelling produced by the oxazolone antigen in naïve non-sensitized mice.
Peptides Nos. 1-5 were given to the mice by mini perfusion pumps (alzet osmotic pump model 2001), which contained the indicated peptide (40 μg; 200 μl). The pumps were implanted under the mouse skin one day before oxazolone sensitization and they released the peptide in a rate of 1 μl per hour (0.2 μg/hour) for 7 days.
Peptides Nos. 6-10 were given to the mice by subcutaneously injection (1 μg or 10 μg per mouse), every day, starting at one day before oxazolone sensitization and ending at day 5 post DTH initiation.

NF-κB = experiment: Nuclear translocation of NF-κB in T cells (Western blot); type: cell-based; settings: peptide 100 ng/ml for 2 hours, then anti-CD3 mAb 24 hr; human T cells
Excerpt: To address the modulatory role of the wound fluid peptides on the signal transduction cascade leading to regulation of T-cell secretion of TNF-α(and IFN-γ, the nuclear translocation of NF-κB was detected by probing nuclear and cytoplasmic T-cell extracts using mAb specific for the p65 subunit of NF-κB. The nuclear protein Lamin B was used as continuatively expressed control protein for the quantification of protein amounts.
Human T cells. T cells were purified from the peripheral blood of healthy human donors (Blood Bank; Tel-Hashomer, Israel). The whole blood was incubated (20 min, 22° C.) with RosetteSep™ human T-cell enrichment cocktail (StemCell Technologies, Vancouver, BC, Canada). The remaining unsedimented cells were then loaded onto Lymphocyte Separation Medium (ICN Biomedicals; Belgium), isolated by density centrifugation, and washed with PBS. The purified cells (>95% CD3^+ T cells) so obtained were cultured in RPMI containing antibiotics and 10% heat-inactivated FCS. Western blot analysis of T-cell nuclear extracts. Purified T cells (5×10^6) were preincubated with the peptides (100 ng/ml) for 2 hours (37° C. in a 7% CO2, humidified atmosphere). The cells were then replated in 24-well plates pre-coated with anti-CD3 mAb for 24 hr (37° C. in a 7% CO2, humidified atmosphere). T cells were lysed in 10 mM HEPES, 1.5 mM MgCl2, 1 mM dithiothreitol (DTT), 1 mM PMSF, 0.5% Nonidet P-40. The lysates were incubated on ice for 10 min and centrifuged at 2000 rpm for 10 min at 4° C. The supernatants (cytoplasmic extracts) were transferred and the pellet (nuclei) was suspended in buffer containing 30 mM HEPES, 450 mM NaCl, 25% Glycerol, 0.5 mM EDTA, 6 mM DTT, 12 mM MgCl2 1 mM PMSF, 10 μg/ml leupeptin, 10 μg/ml pepstatin, 1% phosphatase inhibitor cocktail, and the suspension was incubated on ice for 30 min. The lysates were cleared by centrifugation (30 min, 14×10^3 rpm, 4° C.), and the resulting supernatants analyzed for protein content. […]

LSALEEYTKKLNTQ [peptide No. 2, residues 254-267 of Apo A-I; identified in wound fluids, then synthesized]
inhibition of T cell transmigration toward SDF-1α (T cells): did not show a significant inhibition | inhibition of anti-CD3 antibody induced TNFα secretion from T cells [1]: 40% | inhibition of anti-CD3 antibody induced IFNγ secretion from T cells [2]: ~30% | resistance to ConA induced hepatitis (BALB/C mice): marked resistance | inhibition of TNFα secretion by Jurkat and THP-1 cells compared to PMA/PHA alone (Jurkat and THP-1 cells): 10% | inhibition of DTH response [3]: hardly inhibited | NF-κB translocation to the nucleus (NF-κB): significant down-regulation
